Consider one molecule from patent publication US10725042B2, “Methods of diagnosing and treating cancer” (Case Western Reserve University, priority 2012, dated 2020).

For one test, the system named is UDG+/+ cells. Put plainly: Replication foci stained with CldU and IdU, UDG+/+ cells. Type of test: cell-based, human. The note with it: pemetrexed 25 nM, n=10 cells. Here is the method:
DNA replication sites were visualized by incorporation of chlorodeoxyuridine (CldU) and iododeoxyuridine (IdU) into DNA. UDG^−/− and UDG^+/+ cells were labeled with 100 μM CldU (ICN, Irvine, Calif.) or IdU (Sigma Chemical Co., St. Louis, Mo.) for 45 min at different time intervals. Cells were washed with PBS, fixed with cold 70% ethanol, and stored at 4° C. For antibody staining, the ethanol was removed, and 100% methanol was added for 5 min. Cells were washed twice with PBS and incubated with 1.5 M HCl for 30 min to denature the DNA. Cells were washed with PBS, permeabilized with 0.5% Tween 20 in PBS for 5 min, and then incubated in 5% BSA (Sigma Chemical Co.) and in PBS for 20 min to reduce nonspecific binding. Primary antibodies CldU (rat anti-BrdU; Accurate Chemical and Science Co., Westbury, N.Y.) and IdU (mouse anti-BrdU; BD Biosciences) were diluted in 1% BSA buffer, added to the slides, and incubated in a humid environment for 2 hrs. Slides were washed with PBS-Tween 20 and then in a high-salt buffer (200 mM NaCl, 0.2% Tween 20, and 0.2% NP-40 in PBS) for 15 min. The samples were incubated with secondary antibodies for 1 h. Finally, slides were washed with PBSTween 20, mounted with Vectashield antifade mounting medium (Vector Laboratories, Inc., Burlingame, Calif.), and stored at 4° C. […] Fluorescence density of CldU or IdU was quantified by NIH image J software.

The next test deals with H1299/PR-2 cells. Briefly: Colony survival assay, H1299/PR-2 pemetrexed-resistant subline. Type of test: cell-based, human. The note with it: PR-2 vs H1299 parental. The method, then: (§1) For cells in suspension, colony survival was determined by crystal violet staining of colonies formed after 10-day exposure of 5×10^3 cells to pemetrexed in soft agar. For adherent cells, colony survival was determined by methylene blue staining of colonies formed after 10-day exposure of 100 cells to pemetrexed in 6-well culture dishes. Only colonies containing ≥50 cells were counted. Data points represent percent of colonies relative to untreated control averaged over 3 experiments.
H1299 cells were exposed to step-wise increasing concentrations of pemetrexed over a period of 4 months. UNG expression was monitored in the bulk population at 2, 8, 12 and 16 weeks prior to administration of the induction dosage and at 24 weeks in a population of bulk chronically exposed cells that had been without pemetrexed for 8 weeks. H1299 cells capable of growth in 50 nM pemetrexed selection pressure were subcloned by limiting dilution in 96 well plates. Independent sublines were designated H1299/PR-1 and H1299/PR-2.

In a further test the test system is H1975 shUNG cells. Briefly: PCNA dissociation by bi-parametric flow cytometry, H1975 shUNG cells. Type of test: cell-based, human. Particulars: 25 nM pemetrexed. The method, then:
(§2) Propidium iodine (PI) staining of methanol fixed cells was for cell cycle determinations. Where indicated, FITC labeled PCNA antibody (PCNA-FITC, Abcam) was added for PCNA detection. Uni-parameter (PI-only) and dual-parameter (PI+PCNA-FITC) analysis was performed on a Coulter flow cytometer (EPICS-XL-MCL). Cell cycle histograms (PI) and PCNA dot plots (PCNA-FITC) were de-convoluted from ≥20,000 events using FlowJo software.
(§3) Prolonged S-phase arrest is known to result in DNA DSB formation due to the collapse of stalled replication forks. We evaluated the stability of the DNA replication fork in pemetrexed treated lung cancer cells with native and reduced levels of UNG protein. Nucleotide incorporation experiments using CldU and IdU indicate decreased postpemetrexed treatment nucleotide incorporation (data not shown). […] Using bi-parametric flow cytometry we measured the dissociation of the replication fork processivity factor, PCNA at the single cell level in H1975 cells expressing UNG directed shRNA. Similar assays have been utilized to detect replication fork disassembly following etoposide and hydroxyurea exposure. PCNA dissociation was determined by the percentage of cells in S phase having low PCNA (red box, FIG. 11d). […] As a complimentary experiment, we examined the expression of chromatin-bound PCNA after pemetrexed treatment by western blot of chromatin cellular extracts.
On the technique in general: In flow cytometry, cells or beads pass a laser one at a time.

In another test the test system is A549 siUNG cells. Put plainly: Colony survival assay, A549 siUNG cells. Type of test: cell-based, human. Here is the method: as §1
(§4) UNG directed shRNA and siRNA plasmids were purchased from Origene. Transfection was carried out according to manufacturer specifications. Stably transfected clones (shRNA) were selected with puromycin with subsequent expansion of a well-isolated colony of cells.

For test [1] the following is noted: treatment of lung cancer; cited from earlier work.
The subject of the next test is H1975 wt tumors. Put plainly: H1975 wt xenografts in NOD-SCID mice. Type of test: in vivo. The method, then: (§5) Tumor cells in early passage (5×10^6) were injected into bilateral flanks of female NODSCID mice (6 weeks old). When tumor volumes reached 100 mm3, mice were divided into control (n=4) and treatment (n=6) groups. Mice bearing tumors were treated with pemetrexed (150 mg/kg) or 100 μl sterile PBS (control) by daily intraperitoneal injection (IP) for 5 consecutive days. Tumor measurements were taken every 2 days and response was quantified by tumor volume.

Another test has as its system H1975 wild type cells. Put plainly: PCNA dissociation by bi-parametric flow cytometry, H1975 wild type cells. Particulars: treated samples. Type of test: cell-based, human. Here is the method:
as §2, §3

The next test has as its system A549 parental cells. Briefly: Colony survival assay, A549 parental cells (Example 2). The note with it: Homo sapiens, read-out: pemetrexed IC50. Type of test: cell-based. The method, then:
as §1

The next test concerns DLD1 UDG+/+ cells. Put plainly: Colony survival (clonogenic) assay, UDG+/+ cells. Type of test: cell-based. The note with it: Homo sapiens, DLD-1, interpolated from dose-response survival curves, read-out: IC50 value for pemetrexed.
For the next test, the system named is H1975 67 shUNG cells. Put plainly: Colony survival assay, H1975 67 shUNG cells. Type of test: cell-based. The note with it: Homo sapiens, NCI-H1975, read-out: pemetrexed IC50. Here is the method:
as §1, §4

The test system of another test is H1975 66 shUNG tumors. Put plainly: H1975 66 shUNG xenografts in NOD-SCID mice. Type of test: in vivo. The method, then:
as §5

Procedure for DLD1 UDG+/+ cells: Tumor cells (500-2000/dish) were plated and treated with pemetrexed (0-400 nM), 5-fluorouracil (0-20 μM), temozolomide (0-1500 μM), or cisplatin (0-40 μM). After 7 days, surviving colonies were stained with methylene blue for 30 min at room temperature and the colonies containing more than 50 cells were counted to generate survival curves.

In general, IC50 refers to the midpoint of a concentration-inhibition curve. On to `Nc1nc2[nH]cc(CCc3ccc(C(=O)N[C@@H](CCC(=O)O)C(=O)O)cc3)c2c(=O)[nH]1` [pemetrexed], for which the results for the “ratio of IdU to CldU (fluorescence density)” value with UDG+/+ cells (6-hr sample) and with UDG+/+ cells (18-hr sample) were 0.7±0.13 and 0.9±0.31, respectively. Also, in the test with H1299/PR-2 cells, the “relative resistance to pemetrexed compared to parental cells” value was determined as 71 fold. The “cells in S phase having low PCNA” value with H1975 shUNG cells (6 hours) is listed as 3.88±0.93%; with H1975 shUNG cells (24 hours), 7.81±1.19%; in the test on H1975 wild type cells it was “less than 1%”. The “sensitivity of A549 siRNA cells compared to parental cells” value with A549 siUNG cells (A549 siUNG vs parental) is recorded as 7 fold. Further, the IC50 with A549 siUNG cells (Homo sapiens, A549 siUNG, colony survival, read-out: pemetrexed IC50) was determined as 60.5 nM; in the test on A549 parental cells, 416 nM; in the test with DLD1 UDG+/+ cells, 210 nM; with H1975 67 shUNG cells it was 146 nM. For the same molecule, the response rate in test [1] was 30-40%. Also, the “tumors smaller than untreated controls” value with H1975 wt tumors (H1975 wild type tumors, day 20, pemetrexed 150 mg/kg IP x5) was found to be 37.8%; in the test on H1975 66 shUNG tumors (H1975 66 shUNG tumors, day 20, pemetrexed 150 mg/kg IP x5) it was 55.6%. For the same molecule, the tumor quadrupling time in the test on H1975 wt tumors (H1975 wt tumors, pemetrexed 150 mg/kg IP, 5 daily injections) is 9.68 ± 0.31 days; with H1975 66 shUNG tumors (H1975 shUNG tumors, pemetrexed 150 mg/kg IP, 5 daily injections), 13.67 ± 0.28 days.
